These results are taken from US6274568A, “Compounds for altering cell surface sialic acids and methods of use therefor” (priority 1999, dated 2001).

For data set [1], the system named is Jurkat cells. Kind of data set: Uptake of mannosamine precursors and conversion to sialic acids in Jurkat cells, HPLC. Particulars: 20 mM precursor, 48 h. Format: cell-based, human. As for the experimental part: (§1) Cells were harvested using hypertonic Ca^2+ - and Mg^2+ -free phosphate-buffered saline containing 1 mM EDTA, collected by centrifugation, and homogenized in ice-cold water using a Potter-Elvehjem glass/Teflon homogenizer. Methanol (2.6 volumes) was added, the suspension mixed and brought to ambient temperature, then chloroform (1.3 volumes, based on the original homogenate) was added and the suspension mixed vigorously. The suspension was centrifuged 30 min at 2,000×g. After collecting the supernatant, the pellet (containing precipitated proteins) was resuspended in water or concentrated ammonium hydroxide and a portion was used for protein assay (BCA, Pierce, Rockford, Ill.). The supernatant was partitioned by adjusting the chloroform-methanol-water ratio to 4:8:5.6 by addition of water, mixing thoroughly, and centrifuging as above. The upper phase was collected and a portion was subjected to reverse phase chromatography, using Sep-Pak C18 cartridges (Waters, Milford, Mass.), to isolate gangliosides (Schnaar, Methods Enzymol. 230:371, 1994).
(§2) To quantify and identify sialic acids, a portion of resolublized protein, organic/aqueous soluble pool, or reverse-phase purified gangliosides was evaporated to dryness in a 500-μl polypropylene tube and 20 μl of 0.1 M HCl/0.25 M NaCl was added. One Ampliwax bead (Perkin Elmer Corp, Foster City, Calif.) per reaction was added to block evaporation, and the sample hydrolyzed for 3 h at 80° C. Released sialic acids were analyzed by injecting an aliquot (1-10 μl) onto a Dionex high pressure liquid chromatography system (Dionex Corporation, Sunnyvale, Calif.) using a HPIC-AS6 column and a pulsed amperometric detector. Elution solutions were: A, 0.75 mM NaOH; B, 200 mM NaOH; and C, 400 mM sodium acetate in 50 mM NaOH. NeuAc and NeuPr were resolved by elution with 40% A, 50% B, 10% C for 15 min at 1 ml/min. NeuGc was resolved in separate injections using step gradient elution: 0-1.8 min, 18% A, 50% B, 32% C; 2-10 min, 40% B, 60% C. Sialic acids were identified by comparison of their elution time with those of standard NeuAc, NeuPr and NeuGc and were quantified in comparison to a standard curve of commercial NeuAc (for NeuAc and NeuPr) or NeuGc.
(§3) To confirm that the quantified peaks represented sialic acids, 10 μl of acid hydrolysates were treated with 1 μl of 1 M sodium phosphate (pH 7.2) and 10 μl of 0.1 M NaOH. Neutralized samples were incubated at 37° C. for 2 h with or without 0.9 U of N-acetylneuraminic acid aldolase (Sigma), 32 μM NADH and 0.1 μg lactate dehydrogenase. Sialic acid content in the ganglioside and glycoprotein fractions is expressed per mg of total cell protein. Precursor pool sialic acid (sialic acid plus CMP-sialic acid) was calculated by subtracting the ganglioside value from the organic/aqueous pool value, both expressed per mg of cell protein.
Sialic acid is biosynthesized from the precursor sugar N-acetylmannosamine (FIG. 2). In the present invention, sialic acids are converted on live neuronal cells from NeuAc, which is a key determinant for MAG binding, to NeuGc, which is non-permissive for MAG binding. A potential NeuGc precursor, N-glycolylmannosamine monoacetate (ManNGcMA, FIG. 1, R1 =H) was tested for its ability to generate altered sialic acids in neuronal and non-neuronal cells. N-propanoylmannosamine (ManNPr) and other N-acyl mannosamine derivatives have been used to modify glycoprotein associated sialic acids to the corresponding N-acylneuraminic acid. N-propanoyl-mannosamine (ManNPr), was used as a positive control. Jurkat human lymphoma cells and NG108-15 cells (rodent neuroblastoma/glioma hybrid cells) were incubated in 20 mM synthetic precursor or control precursor (N-acetylmannosamine, ManNAc) for 48 h, then harvested. Cell pellets were fractioned into lipid associated, protein associated, and intracellular (lipid and cytoplasmic which may consist of oligosaccharide-bound, free, or CMP-activated sialic acid) sialic acids and hydrolyzed to release sialic acid. […]

In data set [2] the test system is NG108-15 cells.
Description: Cell growth rates were determined in control cultures (.box-solid.), in cultures treated with 0.08 mM (.circle-solid.), 0.25 mM (.smallcircle.), or 1 mM (.quadrature.) ManNGcPA, and in cultures treated with 0.25 mM (.tangle-solidup.) or 1 mM (Δ) glucose pentaacetate.
NG108-15 cells were maintained in Dulbecco's modified Eagle's medium (high glucose formulation) containing 5% iron-enriched calf serum, 100 μM hypoxanthine, 16 μM thymidine, and 5 μM aminopterin. […] Both cell types were cultured at 37° C. in a humidified atmosphere of 90% air/10% CO2. For treatment with sialic acid precursors, mannosamine derivatives were diluted into the appropriate medium and filter sterilized. […] In experiments testing ManNGcPA, all cells (control and experimental) were grown in the presence of 0.5% (v/v) DMSO, the carrier for ManNGcPA.
The test system of data set [3] is NG108-15 cells. The data set is described as follows: Uptake of mannosamine precursors and conversion to sialic acids (precursor pool, gangliosides, glycoproteins) in NG108-15 cells, HPLC. Format: cell-based, mouse neuroblastoma/rat glioma hybrid. As for the experimental part: as §1, §2, §3
Sialic acid is biosynthesized from the precursor sugar N-acetylmannosamine (FIG. 2). In the present invention, sialic acids are converted on live neuronal cells from NeuAc, which is a key determinant for MAG binding, to NeuGc, which is non-permissive for MAG binding. A potential NeuGc precursor, N-glycolylmannosamine monoacetate (ManNGcMA, FIG. 1, R1 =H) was tested for its ability to generate altered sialic acids in neuronal and non-neuronal cells. N-propanoylmannosamine (ManNPr) and other N-acyl mannosamine derivatives have been used to modify glycoprotein associated sialic acids to the corresponding N-acylneuraminic acid. N-propanoyl-mannosamine (ManNPr), was used as a positive control. […] Cell pellets were fractioned into lipid associated, protein associated, and intracellular (lipid and cytoplasmic which may consist of oligosaccharide-bound, free, or CMP-activated sialic acid) sialic acids and hydrolyzed to release sialic acid. The hydrolyzed samples were then analyzed by HPLC to determine sialic acid content. […]

Data set [4] relates to Jurkat cells. Kind of data set: Morphology and viability of precursor-treated Jurkat cells. Format: cell-based, human.
Description: Jurkat cells were maintained in RPMI Medium 1640 (Gibco Life Technologies, Gaithersburg, Md.) supplemented with 10% fetal bovine serum. Both cell types were cultured at 37° C. in a humidified atmosphere of 90% air/10% CO2. For treatment with sialic acid precursors, mannosamine derivatives were diluted into the appropriate medium and filter sterilized. The growth medium was then replaced and cells were cultured in the presence of the precursor for 24-144 h.
Data set [5] relates to sialoadhesin. The note with it: cited from earlier work.
Data set [6] concerns myelin-associated glycoprotein (MAG). The note with it: cited from earlier work.
Data set [7] concerns NG108-15 cells. Particulars: cited from earlier work.
The mark [8] stands for this setting: NG108-15, 20 mM precursor, 48 h.

Entries after “also recorded” stand apart in the source; their conditions may differ.

Regarding `CCC(=O)N[C@@H]1C(O)O[C@H](CO)[C@@H](O)[C@@H]1O` (stereo partly shown) [ManNPr, N-Propanoylmannosamine, reference compound], in data set [1], the “glycoprotein associated sialic acid in the form of NeuPr” value is on record as “≈ 50%”, the “intracellular sialic acid pool as NeuPr” value was “composed predominantly”, the “levels of intracellular sialic acid” value is “high levels” and the “lipid associated sialic acid in the form of NeuPr” value came out at 33%. Besides, the “levels of intracellular sialic acid” value in data set [1] (listed as N-propanoylmannosamine) is on record as “high levels of intracellular sialic acid similar to that observed with N-acetylmannosamine treatment”. The “alteration of cell morphology or viability” value in data set [2] is given as “did not seem to alter cell morphology or viability significantly”. The “incorporation into gangliosides and glycoproteins as NeuPr” value in data set [3] is given as “efficiently incorporated”. In data set [3] (20 mM precursor, 48 h), the “increase in intracellular sialic acid (precursor pool)” value came out at 4 fold, the “increase in total glycoprotein sialic acid” value is given as “≈ 1.4 fold” and the “sialic acid precursor pool as NeuPr” value is over 95%. For the same molecule, in data set [3] (setting [8]), the “ganglioside (lipid associated) sialic acid in the form of NeuPr” value is 70% and ≈ 70%; the “intracellular sialic acid pool as NeuPr” value was “composed predominantly”; the “levels of intracellular sialic acid” value is on record as “high levels”; the “size of the ganglioside pool” value is given as “remained relatively constant”. The “levels of intracellular sialic acid” value in data set [3] (NG108-15, 20 mM precursor, 48 h, listed as N-propanoylmannosamine) is on record as “high levels of intracellular sialic acid similar to that observed with N-acetylmannosamine treatment”. Also, the “alteration of cell morphology or viability” value in data set [4] is on record as “did not seem to alter cell morphology or viability significantly”.

On to `CC(=O)N[C@H]1[C@H]([C@H](O)[C@H](O)CO)OC(O)(C(=O)O)C[C@@H]1O` (stereo partly shown) [NeuAc, N-acetylneuraminic acid], for which, in data set [5], the sialoadhesin binding result is “MAG and sialoadhesin bind NeuAc”. The “support of MAG binding / recognition” value in data set [6] was “support MAG binding; also recorded: MAG and sialoadhesin bind NeuAc”.

B1: MAG: Myelin associated glycoprotein (MAG), a sialic acid binding lectin and member of the siglec family (protein, UniProt P20916 20-626, looked up)
Myelin-associated glycoprotein: GHWGAWMPSSISAFEGTCVSIPCRFDFPDELRPAVVHGVWYFNSPYPKNYPPVVFKSRTQVVHESFQGRSRLLGDLGLRNCTLLLSNVSPELGGKYYFRGDLGGYNQYTFSEHSVLDIVNTPNIVVPPEVVAGTEVEVSCMVPDNCPELRPELSWLGHEGLGEPAVLGRLREDEGTWVQVSLLHFVPTREANGHRLGCQASFPNTTLQFEGYASMDVKYPPVIVEMNSSVEAIEGSHVSLLCGADSNPPPLLTWMRDGTVLREAVAESLLLELEEVTPAEDGVYACLAENAYGQDNRTVGLSVMYAPWKPTVNGTMVAVEGETVSILCSTQSNPDPILTIFKEKQILSTVIYESELQLELPAVSPEDDGEYWCVAENQYGQRATAFNLSVEFAPVLLLESHCAAARDTVQCLCVVKSNPEPSVAFELPSRNVTVNESEREFVYSERSGLVLTSILTLRGQAQAPPRVICTARNLYGAKSLELPFQGAHRLMWAKIGPVGAVVAFAILIAIVCYITQTRRKKNVTESPSFSAGDNPPVLFSSDFRISGAPEKYESERRLGSERRLLGLRGEPPELDLSYSHSDLGKRPTKDSYTLTEELAEYAEIRVK
In the case of B1, the “neurite outgrowth from NG108-15 cells” value in data set [7] is recorded as “inhibited”.
